Entries after “also recorded” stand apart in the source; their conditions may differ. Read-outs that look alike come from different tables or passages of the source.

In data set [1] the test system is intracellular Ca^2+ stores. Briefly: Ca2+ release from intracellular stores (FURA-2AM loaded cells). The data set is classed as cell-based. Further details: key to Ca^2+ (Ca^2+ release from intracellular stores): a “+” denotes release; a “+/−” denotes inconclusive. An outline of the steps:
(§1)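 Ca2+ release scored in FURA-2AM loaded cells as "+" (release) or "+/−" (inconclusive); some compounds also tested with ER-targeted FRET Ca2+ sensors. Ca2+-depleting compounds were then tested for eIF2α phosphorylation by Western blot with phospho-specific anti-eIF2α antibody.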

The next data set concerns eIF2α. Nature of the data set: eIF2α phosphorylation measured by Western blot. The data set is classed as cell-based. The conditions noted are these: for eIF2α-P (phosphorylation of eIF2α measured by Western blot): unit or reference not given. The gist of the method: as §1
In general terms: In western blotting, separated proteins are transferred to a membrane and probed.

The test system of a further data set is A549 lung cancer cells. Briefly: SRB growth inhibition of A549 lung cancer cells. The data set is classed as cell-based, human.
A short description of data set [2]: Plasma levels after oral administration (LC-MS). The note with it: mouse, DBA/2J mice. The data set is classed as in vivo. The method, then: (§2) Ternary complex assay was 8-fold over DMSO at 20 μM, and cell growth was inhibited at <1 μM. The plasma levels for this in mice were estimated using liquid chromatography and mass spectrometry (LC-MS). Compound 1430 was orally administered at 160 mg/kg, 240 mg/kg, and 320 mg/kg to DBA/2J mice and the plasma concentration was measured at three time points, one hour, three hours, and six hours, and is set forth in Table 15. The plasma was isolated from the mice by heart-lung puncture and the samples were processed and analyzed by LC-MS. The concentrations at each time and dose are in nmoles/mL of plasma (n.d.=not detected; X=not determined).

The subject of data set [3] is ternary complex in transgenic KLN cells. Briefly: Ternary complex assay. The data set is classed as cell-based. As to the method: FIGS. 3A-3C depict compound 1181 activity. (A) depicts the drug induced phosphorylation of eIF2α protein in control (lane 1), positive control (lane 2) and 1181 (lane 3) measured using Western blot analysis.
as §2

Data set [4] has as its system squamous cell carcinoma (KLN) tumor. Nature of the data set: Squamous cell carcinoma (KLN) tumor mass in mice. The data set is classed as in vivo. The conditions noted are these: DBA/2J mice, oral, 320 mg/kg/day, six weeks.
The test system of data set [5] is endoplasmic reticulum (ER) Ca^2+. Briefly: Depletion of endoplasmic reticulum Ca2+ (ER-targeted cameleon proteins, FRET). The data set is classed as cell-based. The conditions noted are these: ER-targeted Ca^2+-sensitive proteins. The method, then:
FIGS. 2A-2B depict compound 1181 activity. […] These proteins emit light and the Ca^2+ content is measured by fluorescent resonance energy transfer (FRET).
Without intending to be bound by theory, the mechanism of action of translation initiation inhibitors is set forth in FIG. 1, and includes the depletion (complete or partial depletion) of intracellular calcium (Ca^2+) stores and phosphorylation of eIF2α. Compounds synthesized using the approaches described herein were screened for their ability to partially deplete intracellular Ca^2+ stores using FURA-2AM loaded cells (Benzaquen et al. (1995) Nature Medicine, 1:534, incorporated herein by reference in its entirety for all purposes). A limited subset of compounds were further screened for their ability to deplete endoplasmic reticulum (ER) Ca^2+. The Ca^2+ content of the ER was monitored using ER-targeted, Ca^2+ sensitive, recombinant proteins. These recombinant proteins emitted light by fluorescent resonance energy transfer (FRET) as a function of the Ca^2+ content of the medium. […] Compounds that depleted Ca^2+ were further evaluated for their ability to phosphorylate eIF2α. eIF2α phosphorylation was measured by Western blot analysis using the phospho-specific anti-eIF2α antibody, as previously described (Aktas et al. (1998) Proc. Natl. Acad. Sci. USA, 95:8280, incorporated herein by reference in its entirety for all purposes).

[6] abbreviates: Homo sapiens, A549 lung cancer cells, unit inferred, read-out: SRB (IC50 for growth inhibition of A549 lung cancer cells).
[7] abbreviates: A549 lung cancer cells, unit inferred, read-out: SRB (IC50 for growth inhibition of A549 lung cancer cells).

As to `Cc1cc(C2(c3ccccc3)C(=O)Nc3ccccc32)c(NS(=O)(=O)c2ccc(C(C)(C)C)cc2)cc1O` (stereo not shown) [Compound 1430, 4-tert-butyl-N-[5-hydroxy-4-methyl-2-(2-oxo-3-phenyl-2,3-dihydro-1H-indol-3-yl)-phenyl]-benzenesulfonamide], the “Ca^2+ (Ca^2+ release from intracellular stores)” value in data set [1] is listed as “+”. For the same compound, the “eIF2α-P (phosphorylation of eIF2α measured by Western blot)” value (shortened to “eIF2α-P”) with eIF2α was found to be 4.8. In the data set with eIF2α (at 5 μM, over DMSO), the “increase in eIF2α phosphorylation over DMSO” value was 5 fold. In addition, the IC50 in the data set with A549 lung cancer cells (Homo sapiens, A549, read-out: cell growth was inhibited at) is below 1 µM; with A549 lung cancer cells (setting [6]), 0.9 µM. The figures for the concentration at 1 h in data set [2] (oral 160 mg/kg), in data set [2] (oral 240 mg/kg) and in data set [2] (oral 320 mg/kg) were 5.7 µM, 6.8 µM and 14 µM, respectively. Moreover, the concentration at 3 h in data set [2] (oral 160 mg/kg) is 3.8 µM; in data set [2] (oral 240 mg/kg), 4 µM; in data set [2] (oral 320 mg/kg), 3.8 µM. In addition, the concentration at 6 h in data set [2] (oral 320 mg/kg, 6 hours) is 2.8 µM. In addition, the “Ternary complex assay over DMSO” value in data set [3] (at 20 μM, over DMSO) is reported as 8 fold.
On to `CC(C)(C)c1ccc(O)c(C2(c3ccccc3)C(=O)Nc3ccccc32)c1` (stereo not shown) [Compound 1181, 3-(5-tert-butyl-2-hydroxy-phenyl)-3-phenyl-1,3-dihydro-indol-2-one], for which, in data set [1], the “Ca^2+ (Ca^2+ release from intracellular stores)” value is listed as “+” and the “Ca^2+ release / depletion of intracellular Ca^2+ (in words)” value was “calcium (Ca^2+) release in a dose dependent manner”. In addition, in the data set on eIF2α, the “eIF2α phosphorylation (in words)” value is reported as “phosphorylated eIF2α” and the “eIF2α-P” value is reported as 5. Further, the “squamous cell carcinoma (KLN) tumor mass” value in data set [4] is “decreased squamous cell carcinoma tumor mass in mice; also recorded: decrease in squamous cell carcinoma (KLN) tumor mass”. Moreover, the “growth inhibition of cancer cells (in words)” value with A549 lung cancer cells (A549) is listed as “inhibited growth of a cancer cell line (A549)”. Also, the IC50 with A549 lung cancer cells (setting [6]) turned out to be 3 µM. Also, the “depletion of ternary complex (in words)” value in data set [3] (transgenic KLN cells) is “depletion of ternary complex”. For the same compound, in data set [5], the “depletion of ER Ca^2+ (in words)” value is “depleted ER-Ca^2+; also recorded: depletion of endoplasmic reticulum (ER) Ca^2+”.
As for `CCc1ccc2c(c1)NC(=O)C2(c1ccccc1)c1cc(C(C)(C)C)ccc1O` (stereo not shown) [Compound 1258], the “Ca^2+ (Ca^2+ release from intracellular stores)” value in data set [1] is on record as “+”. Besides, in the data set on eIF2α, the “eIF2α-P” value is recorded as 3.13. The IC50 with A549 lung cancer cells (setting [7]) was found to be 4 µM.
Consider `CC(C)Cc1ccc(O)c(C2(c3ccccc3)C(=O)Nc3ccccc32)c1` (stereo not shown) [Compound 1281], for which, in data set [1], the “Ca^2+ (Ca^2+ release from intracellular stores)” value is “+”. Besides, in the data set with eIF2α, the “eIF2α-P” value was determined as 7.94. Moreover, the IC50 with A549 lung cancer cells (setting [7]) was 3 µM.
On to `CC(C)(C)c1ccc(O)c(C2(c3ccccc3)C(=O)Nc3c(I)cccc32)c1` (stereo not shown) [Compound 1253], for which the “Ca^2+ (Ca^2+ release from intracellular stores)” value in data set [1] was “+”. Moreover, in the data set with eIF2α, the “eIF2α-P” value came out at 2.05. In the data set with A549 lung cancer cells (setting [7]), the IC50 was found to be 6 µM.
In the same order, the values of `COc1ccccc1C1(c2cc(C(C)(C)C)ccc2O)C(=O)Nc2ccccc21` (stereo not shown) [Compound 1226] are “+”, 2.22 and 3 µM.
Consider `CCc1cccc2c1C(c1ccccc1)(c1ccccc1)C(=O)N2` [Compound 1270], for which the “Ca^2+ (Ca^2+ release from intracellular stores)” value in data set [1] is “+”. In the data set with eIF2α, the “eIF2α-P” value was 1.68. In addition, in the data set with A549 lung cancer cells (setting [7]), the IC50 is above 20 µM.
Turning to `Cc1cc(C2(c3ccccc3)C(=O)Nc3ccccc32)c(NS(=O)(=O)c2ccc(Br)cc2)cc1O` (stereo not shown) [Compound 1591], in data set [1], the “Ca^2+ (Ca^2+ release from intracellular stores)” value was “+”. Besides, the “eIF2α-P” value with eIF2α is recorded as 3.30. The IC50 with A549 lung cancer cells (setting [7]) came out at 3 µM.
Taken in the same sequence, the figures for `COC(=O)c1ccc(Cl)c2c1NC(=O)C2(c1ccccc1)c1ccccc1` [Compound 1351] were “+/−”, 1.35 and above 20 µM.
As to `Nc1ccc(CCNC(=O)c2ccc(Cl)c3c2NC(=O)C3(c2ccccc2)c2ccccc2)cc1` [Compound 1355], in data set [1], the “Ca^2+ (Ca^2+ release from intracellular stores)” value is “+/−”. In addition, the “eIF2α-P” value with eIF2α came out at 3.80. Further, the IC50 in the data set with A549 lung cancer cells (setting [7]) stood at 5 µM.
As to `CCc1ccc2c(c1)NC(=O)C2(c1ccccc1)c1ccccc1` [Compound 1271], the “Ca^2+ (Ca^2+ release from intracellular stores)” value in data set [1] is on record as “+”. Further, the “eIF2α-P” value in the data set on eIF2α was found to be 1.58. The IC50 with A549 lung cancer cells (setting [7]) was determined as 4 µM.
Regarding `CCCCCCc1ccc(O)c(C2(c3ccccc3)C(=O)Nc3ccccc32)c1` (stereo not shown) [Compound 1288], the “Ca^2+ (Ca^2+ release from intracellular stores)” value in data set [1] is listed as “+”. The “eIF2α-P” value with eIF2α is given as 6.28. The IC50 with A549 lung cancer cells (setting [7]) came out at 3 µM.
As for `O=C1Nc2ccccc2C1(c1ccccc1)c1cc(C2CCCCC2)ccc1O` (stereo not shown) [Compound 1290], in data set [1], the “Ca^2+ (Ca^2+ release from intracellular stores)” value is “+/−”. In addition, in the data set on eIF2α, the “eIF2α-P” value came out at 8.60. Also, the IC50 in the data set with A549 lung cancer cells (setting [7]) came out at 3 µM.
Consider `Cc1ccccc1C1(c2cc(C(C)(C)C)ccc2O)C(=O)Nc2ccccc21` (stereo not shown) [Compound 1225], for which the “Ca^2+ (Ca^2+ release from intracellular stores)” value in data set [1] was “+”. In addition, the “eIF2α-P” value in the data set on eIF2α is 1.69. Moreover, the IC50 with A549 lung cancer cells (setting [7]) stood at 4 µM.
Turning to `O=C1Nc2ccc(I)cc2C1(c1ccccc1)c1ccccc1` [Compound 1264], the “Ca^2+ (Ca^2+ release from intracellular stores)” value in data set [1] is recorded as “+”. Moreover, the “eIF2α-P” value in the data set with eIF2α is on record as 2.53. Also, in the data set on A549 lung cancer cells (setting [7]), the IC50 was found to be 9 µM.
Taken in the same sequence, the figures for `CC(C)(C)c1ccc(O)c(C2(Cc3ccccc3)C(=O)Nc3ccccc32)c1` (stereo not shown) [Compound 1275] were “+/−”, 1.01 and 13 µM.
In the same order, the values of `O=C1Nc2c(Cn3ccnc3)ccc(Cl)c2C1(c1ccccc1)c1ccccc1` [Compound 1401] are “+/−”, 2.56 and above 20 µM.
With `CC(C)(C)c1ccc(O)c(C2(c3ccccc3)C(=O)Nc3ccc(Cl)cc32)c1` (stereo not shown) [Compound 1215], the “Ca^2+ (Ca^2+ release from intracellular stores)” value in data set [1] is recorded as “+/−”. Moreover, the “eIF2α-P” value in the data set on eIF2α is given as 1.1. The IC50 in the data set with A549 lung cancer cells (setting [7]) came out at 3 µM.

These data come from US8044089B2, “3-3-di-substituted-oxindoles as inhibitors of translation initiation” (President and Fellows of Harvard College, priority 2004, dated 2011).
